Results on five compounds are retold here after patent US7368461B2 (AstraZeneca AB, priority 2001, dated 2008).

Several values for one entry are separate records, joined by “and”; a condition that tells them apart may be missing. Equal values may be shown once.

In general, Ki refers to a measure of affinity in units of concentration, obtained from inhibition or displacement. A word on the inhibition: it is the share of the control response that was lost under treatment.

One experiment deals with T1, human NK2 receptors (Homo sapiens, UniProt P21452).
T1 construct: expressed in transfected cells; host or cells: MEL cells (murine erythroleukemia), membranes
T1 sequence (P21452 1-398): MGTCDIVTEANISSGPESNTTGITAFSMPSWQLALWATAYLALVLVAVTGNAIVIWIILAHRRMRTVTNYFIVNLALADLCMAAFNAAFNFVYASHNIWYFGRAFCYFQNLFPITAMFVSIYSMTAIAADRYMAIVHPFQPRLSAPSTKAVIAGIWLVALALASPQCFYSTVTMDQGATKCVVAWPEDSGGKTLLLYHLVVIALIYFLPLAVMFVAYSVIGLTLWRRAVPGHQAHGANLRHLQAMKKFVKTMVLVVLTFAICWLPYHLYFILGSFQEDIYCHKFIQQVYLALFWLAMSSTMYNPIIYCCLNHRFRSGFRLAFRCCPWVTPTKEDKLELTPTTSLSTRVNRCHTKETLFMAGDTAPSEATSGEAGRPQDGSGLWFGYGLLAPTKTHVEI
Put plainly: Receptor binding assay with [3H]NKA in membranes of MEL cells expressing cloned human NK2 receptors. Particulars: cloned hNK2 in MEL cell membranes; for Ki: read-out: hNK2 (Ki expressed as -Log Molar) (converted). As for the experimental part:
(§1) Preparation of Membranes from MEL Cells Transfected with Cloned Human NK1 or NK2 receptors:
(§2) The cloning of the human lung NK1 and NK2 receptors was achieved as described by Hopkins, et al., Biochem. Biophys. Res. Commun. 180: 1110-1117 (1991), and Graham, et al., Biochem. Biophys. Res. Commun. 177: 8-16 (1991). Heterologous expression and scale-up growth of MEL cells transfected with human tachykinin receptors was performed as described for NK2 receptors by Aharony, et al., Mol. Pharmacol. 45: 9-19, 1994.
(§3) Membranes from recombinant MEL cells expressing NK1 or NK2 receptors were prepared as described by Hopkins, et al., (1991). Briefly, cells were homogenized at 4° C. (Brinkman PT-20 Polytron, setting 3, with one 15 sec burst on ice), in a buffer consisting of 50 mM Tris-HCl (pH7.4), 5 mM KCl, 120 mM NaCl, 10 mM EDTA and containing several protease inhibitors (1 mM phenylmethylsulfonylfluoride; 0.1 mg/ml soybean trypsin inhibitor, and 1 mM iodoacetamide). The homogenate was centrifuged at 1200×g for 45 min at 4° C. to remove cell debris. The supernatant was centrifuged at 48,000×g for 45 min at 4° C. The pellet was resuspended with a glass-Teflon motorized homogenizer in 30 volumes of ice-cold 50 mM Tris-HCl (pH 7.4) buffer.
(§4) Ligand binding assays with [^3H]NKA in MEL cells expressing cloned NK2 receptors or [^3H]SP in MEL cells expressing cloned NK1 receptors, were conducted generally as described by Aharony, et al., Mol. Pharmacol. 45: 9-19, 1994, Aharony, et al., Neuropeptides 23: 121-130 (1992) and Aharony, et al., J. Pharmacol. Exp. Ther. 259: 146-155(1991). In brief, incubations were carried out in assay buffer containing membranes, test compounds, and [^3H] ligand (1.0-1.5 nM). In competition experiments, mixtures (0.315 mL) containing various concentrations of competing agents (agonists, antagonists, or vehicle), were incubated at 25° C. for 30 min., with or without 1 μM unlabeled homogenous ligand (NKA or SP), to define non-specific binding. Reactions were initiated by adding membranes (0.1-0.15 mg protein/final concentration) and were conducted in duplicate. Saturation and kinetic experiments were conducted in triplicate. Separation of receptor-bound and free ligand was accomplished by dilution with 1 mL of wash buffer (20 mM Tris-HCl, pH 7.5) followed immediately by vacuum filtration with a total volume of 10 mL of wash buffer (utilizing a Brandel Cell Harvester MB-48R with Whatman GF/B filters presoaked in 0.1% polyethylenimine).
(§5) The ability of compounds disclosed herein to inhibit the binding of [^3H] ligand is shown by the results disclosed in Table 1.

For experiment [1], the system named is BANK-induced bladder contraction. Put plainly: BANK-induced bladder contraction in anesthetized guinea pigs. Type of experiment: in vivo, guinea pig. Particulars: for Inhibition of BANK-mediated GP bladder contraction (% Inhibition mediated by 52 nM/kg administered orally): anesthetized female guinea pigs, 52 nM/kg orally by gavage 1 hr before BANK 3 nmol/kg iv, mean ± S.E.M. The method, then:
BANK-Induced Bladder Contraction in Anesthetized Guinea Pigs:
Female guinea pigs (300-450 g) were anesthetized by intramuscular administration of ketamine/xylazine mixture (3/10 mg/kg, respectively). The jugular vein was catheterized and the distal end of the catheter connected to a syringe for administration of compound where appropriate. Subsequently, the bladder was exposed through a midline abdominal incision, the ureters tied with 4-0 silk suture approximately 2 cm above the bladder, and cut above the ligature to allow drainage from the kidneys. Cannula were passed through the proximal urethra and bladder sphincter into the bladder lumen. The bladder was manually emptied, infused with 0.3 mL saline, and the catheter attached to a Gould p23 ID pressure transducer for recording changes in bladder pressure. An equilibration period of approximately 15 min was allowed for stabilization of the animals following surgical preparation. Thiorphan (10 mg/kg iv) was administered 15 minutes before agonist exposure to inhibit neutral endopeptidase 3.4.24.11.
The response was allowed to decay during a 15 min equilibration period before intravenous administration of test compound ([…], 5% PEG 400-saline vehicle). An additional 15 min equilibration period elapsed before administration of an equivalent dose of BANK was repeated. Preliminary studies were performed to establish equivalence of bladder contractile responses to multiple administrations of BANK. Effects were calculated as the percentage difference between the response to BANK in the presence and absence of test compounds.
To establish the oral effect of test compounds, animals were administered the test compounds (52 nmol/kg, 5% PEG 400-saline vehicle) by gavage 1 hr before administration of BANK. This was followed by intravenous administration of BANK (3 nmol/kg). Bladder contraction occurring in the presence or absence of test compound was recorded as an increase in intravesical bladder pressure on a Grass 7D Polygraph and expressed as percent inhibition of the BANK-mediated effect. Duration of action studies were performed following oral administration of test compounds ([…], 5% PEG 400-saline vehicle) at different times prior to administration of BANK. Responses were calculated as the percentage difference between the response to BANK in the presence of test compound compared with sham-treated controls. For all studies, each animal was administered a single dose of test compound. Experimental results were expressed as the mean plus or minus the Standard Error of the Mean (±S.E.M) percentage change from basal level.
The ability of compounds disclosed herein to inhibit bladder contractions induced with BANK is shown by the results disclosed in Table 1.

The target in the next experiment is T2, human NK1 receptors (Homo sapiens, UniProt P25103).
T2 construct: expressed in transfected cells; host or cells: MEL cells (murine erythroleukemia), membranes
Description: Receptor binding assay with [3H]SP in membranes of MEL cells expressing cloned human NK1 receptors. Particulars: cloned hNK1 in MEL cell membranes; for Ki: read-out: hNK1 (Ki expressed as -Log Molar) (converted). As for the experimental part:
as §1, §2, §3, §4, §5

T2 sequence (P25103 whole entry): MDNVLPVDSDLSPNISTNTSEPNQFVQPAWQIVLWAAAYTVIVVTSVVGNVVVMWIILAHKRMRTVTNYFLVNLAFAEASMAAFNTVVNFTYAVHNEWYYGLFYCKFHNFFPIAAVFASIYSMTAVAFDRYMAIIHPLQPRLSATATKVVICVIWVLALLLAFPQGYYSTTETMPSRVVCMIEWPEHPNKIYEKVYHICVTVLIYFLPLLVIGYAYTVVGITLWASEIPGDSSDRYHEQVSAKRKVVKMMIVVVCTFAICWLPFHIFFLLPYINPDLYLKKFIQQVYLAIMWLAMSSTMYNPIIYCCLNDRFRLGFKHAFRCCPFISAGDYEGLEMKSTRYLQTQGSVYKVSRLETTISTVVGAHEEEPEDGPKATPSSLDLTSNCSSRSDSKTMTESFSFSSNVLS

For `CN(C[C@@H](CCN1CCC(N2CCCCC2=O)CC1)c1ccc(Cl)c(Cl)c1)C(=O)c1ccccc1F` [Example 1, (S)—N-[2-(3,4-Dichloro-phenyl)-4-(2-oxo-[1,4′]bipiperidinyl-1′-yl)-butyl]-2-fluoro-N-methyl-benzamide], the Ki at human NK2 receptors was 1.45 nM; on human NK1 receptors, 91.2 nM. In experiment [1], the “Inhibition of BANK-mediated GP bladder contraction (% Inhibition mediated by 52 nM/kg administered orally)” value is 80% and 80 ± 6%.
Regarding `CN(C[C@@H](CCN1CCC(N2CCCCC2=S)CC1)c1ccc(Cl)c(Cl)c1)C(=O)c1ccccc1` [Example 2, (S)—N-[2-(3,4-Dichlorophenyl)-4-[4-(2-thio-piperidin-1-yl)piperidino]butyl]-N-methylbenzamide], at human NK2 receptors, the “hNK2 (Ki expressed as -Log Molar)” value was 8.73 -Log Molar. For the same compound, the “Inhibition of BANK-mediated GP bladder contraction (% Inhibition mediated by 52 nM/kg administered orally)” value in experiment [1] is reported as 42 ± 13%. For the same compound, the “hNK1 (Ki expressed as -Log Molar)” value on human NK1 receptors is listed as 7.22 -Log Molar.
Consider `CN(C[C@@H](CCN1CCC(N2CCCCC2=O)CC1)c1ccc(Cl)c(Cl)c1)C(=O)c1ccc(F)cc1` [Example 4, (S)—N-[2-(3,4-Dichlorophenyl)-4-[4-(2-oxo-piperidin-1-yl)piperidino]butyl]-N-methyl-4-fluorobenzamide], for which, in experiment [1], the “Inhibition of BANK-mediated GP bladder contraction (% Inhibition mediated by 52 nM/kg administered orally)” value is listed as −28 ± 45%. In experiment [1] (guinea pig, as shown in Table 1 (52 nM/kg orally)), the “increase in the bladder contraction induced by BANK” value is on record as 28%.
On to `CN(C[C@@H](CCN1CCC(N2CCCCC2=O)CC1)c1ccc(Cl)c(Cl)c1)C(=O)c1ccccc1` [Example 5, (S)—N-[2-(3,4-Dichlorophenyl)-4-[4-(2-oxo-piperidin-1-yl)piperidino]butyl]-N-methylbenzamide], for which the Ki was 3.31 nM on human NK2 receptors and 427 nM at human NK1 receptors.
Turning to `CCNC(=O)C1(N2CCCCC2=O)CCN(CC[C@H](CN(C)C(=O)c2ccccc2)c2ccc(Cl)c(Cl)c2)CC1` [Example 6], the Ki on human NK2 receptors is 0.2 nM. Also, the “Inhibition of BANK-mediated GP bladder contraction (% Inhibition mediated by 52 nM/kg administered orally)” value in experiment [1] was −65 ± 58%. Moreover, the inhibition at 10 µM on human NK1 receptors (10 μM) came out at 84%.
